Tests used:
[1] = tested on: human washed platelets; experiment: Collagen stimulated platelet aggregation; assay type: cell-based; details: collagen 1 μg/mL, 3 minutes
Description: (§1) Human Platelet Preparation: 50 mL of blood was drawn from drug free, consenting individuals, into a syringe containing 5 mL sodium citrate (4% w/v) and 7.5 mL warmed ACD (85 mM sodium citrate, 71 mM citric acid and 110 mM glucose). Blood was centrifuged at 102 g for 20 minutes to obtain platelet-rich plasma (PRP), which was then decanted and 104 prostacyclin (PGI2 125 μg/mL, solubilized in ethanol) added. Platelets were pelleted by centrifugation at 1413 g for 10 minutes, platelet poor plasma was discarded and the pellet resuspended in 25 mL Tyrode's-HEPES buffer (134 mM NaCl, 2.9 mM KCl, 0.34 mM Na2HPO4, 12 mM NaHCO3, 20 mM HEPES, 1 mM MgCl2 and 5 mM glucose pH 7.3), 3 mL of ACD and 10 μL PGI2 were added and then following centrifugation at 1413 g for 10 minutes, the platelet pellet was re-suspended to the appropriate cell density using Tyrode's buffer. Platelets were rested for 30 minutes at 30° C. to allow platelet responses to recover.
Platelet Aggregation: 445 μL of washed platelets at (4×10^8 cells/mL) were incubated for 5 minutes with vehicle (0.1% (v/v) DMSO) or 54 zafirlukast or montelukast. 50 μL of collagen 1 μg/mL (final), was added and light transmission monitored for 3 minutes at 37° C. with constant stirring (1200 rpm) using an aggregometer (Chronolog, USA).
Statistical analyses: All raw data was analyzed by 1-way ANOVA and where appropriate normalized to vehicle. GraphPad Prism was used to perform statistical analysis by ANOVA or students T test. The level of significance of p values is as follows, *p<0.05,**p<0.01, ***p<0.005. Data presented are mean+/−standard error of the mean.
Zafirlukast inhibits platelet aggregation: Human washed platelets (4×10^8 cells/mL) were pre-treated with 0.1 μM-10 μM zafirlukast or vehicle. Platelets were stimulated with collagen 1 μg/mL and allowed to aggregate for 3 minutes. Aggregation traces representative of the response were obtained and dose responses compared.

[2] = tested on: washed platelets; experiment: Dense granule secretion (ATP, lumi-aggregometer); assay type: cell-based, human; details: 10 μM; collagen 1 μg/mL; vehicle 1.25 nM
Description: as §1
Dense granule secretion: 395 μL of washed platelets were added to a cuvette and incubated with 5 μL of zafirlukast or vehicle (0.1% (v/v) DMSO) for 3 minutes at 37° C. 50 μL Chronolume substrate was added and incubated for a further 2 minutes. […]
Washed platelets (4×10^8 cells/mL), were pre-treated with zafirlukast (0.1-10 μM) or vehicle for 3 minutes. […] Statistical analysis was calculated using a one-way ANOVA (n=3), *P<0.05.

[3] = molecular target: T1, PDI (Homo sapiens, UniProt P07237); experiment: Insulin-based turbidometric assay of thiol isomerase inhibitory activity (PDI); assay type: biochemical; details: insulin turbidity assay, 6 point dose curve
T1 construct: purchased AbCam (Cambridge Mass.)
Description: (§2) Recombinant thiol isomerases were purchased from AbCam (Cambridge Mass.), recombinant insulin (bovine), bacitracin, dithiothreitol (DTT) buffers and all other chemicals were purchased from Sigma Aldrich (St. Louis, Mo.; while 384 well clear bottom plates were purchased from Corning (Corning, N.Y.).
(§3) The catalytic reduction of insulin by thiol isomerases in the presence of DTT results in aggregation of insulin chains. The turbidity of insulin aggregation can be monitored spectrophotometrically at an optical density (OD) at 650 nm. This approach has been used by multiple groups to identify thiol isomerase inhibitors in either a kinetic or endpoint fashion. A final concentration of either 10 μg/mL PDI, 30 μg/mL ERp5, 10 μg/mL ERp72 or 10 μg/mL thioredoxin, 125 μM insulin and 2 mM ethylenediaminetetraacetic acid (EDTA) in 30 μL of 100 mM potassium phosphate buffer was added to each experimental well plate, while negative control wells lacked any thiol isomerase. Lead compounds were diluted in a 6 point dose curve and the turbidity of insulin aggregation was measured kinetically each minute for 75 minutes using a Spectramax M3 plate reader (Molecular Devices, Sunnyvale, Calif.) Specificity assay utilized the insulin turbidity assay as well.

[4] = tested on: platelets; experiment: Platelet spreading upon collagen; assay type: cell-based; details: 0.1 μM-10 μM
Description: Platelet responses in the presence of zafirlukast, (0.1 μM-10 μM) were tested in a range of platelet functional assays including aggregation, granule secretion and spreading studies.

[5] = molecular target: T2, thioredoxin (TRX) (Homo sapiens, UniProt P10599); experiment: Insulin-based turbidometric assay of thiol isomerase inhibitory activity (thioredoxin); assay type: biochemical; details: insulin turbidity assay, 6 point dose curve
T2 construct: purchased AbCam (Cambridge Mass.)
T2 sequence (P10599 1-105): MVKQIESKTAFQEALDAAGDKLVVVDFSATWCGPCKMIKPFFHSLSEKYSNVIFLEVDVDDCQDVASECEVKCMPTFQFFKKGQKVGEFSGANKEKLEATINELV
Description: as §2, §3

[6] = tested on: HCT116 cells; experiment: PrestoBlue cell proliferation assay, HCT116; assay type: cell-based, human; details: HCT116, colon cancer, 24 hours treatment
Description: Cells were plated at 6,000 cells/well in a 96-well plate and treated with the indicated concentration of zafirlukast 24 hours later. Cells were allowed to grow for an additional 24 hours before alterations in growth were measured by the PrestoBlue cell proliferation assay in triplicate. Fluorescence readings with an excitation at 570 nm and emission of 600 nm were collected and treated samples were converted to a percentage of the untreated controls. OVCar8 (human ovarian cancer cell line), HCT116 (human colon cancer), HeLa (cervical cancer cell line) and MDA-MB-231 (breast cancer cell line) cell lines were examined for their ability to inhibit cell proliferation. […] Table 1 illustrates the results of a cell proliferation assay testing zafirlukast against OVCar8 cells, HCT116 cells, HeLa cells and MDA-MB-231 cells.

T1 sequence (P07237 18-508): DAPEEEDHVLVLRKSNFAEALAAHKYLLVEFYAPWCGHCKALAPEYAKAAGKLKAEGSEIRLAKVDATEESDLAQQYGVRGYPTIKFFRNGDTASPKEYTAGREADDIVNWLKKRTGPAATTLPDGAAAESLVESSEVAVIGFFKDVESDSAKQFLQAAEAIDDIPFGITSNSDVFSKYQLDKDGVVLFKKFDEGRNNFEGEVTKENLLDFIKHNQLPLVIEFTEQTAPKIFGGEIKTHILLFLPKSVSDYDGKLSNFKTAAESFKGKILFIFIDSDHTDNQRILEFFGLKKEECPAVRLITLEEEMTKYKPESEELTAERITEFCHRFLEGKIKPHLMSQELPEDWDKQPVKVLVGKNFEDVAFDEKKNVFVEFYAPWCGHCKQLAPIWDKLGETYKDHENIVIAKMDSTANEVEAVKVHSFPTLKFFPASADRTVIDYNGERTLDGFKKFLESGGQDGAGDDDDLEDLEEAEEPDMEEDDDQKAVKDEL

In the case of `COc1cc(C(=O)NS(=O)(=O)c2ccccc2C)ccc1Cc1cn(C)c2ccc(NC(=O)OC3CCCC3)cc12` [zafirlukast, 4-(5-cyclopentyloxycarbonylamino-1-methylindol-3-ylmethyl)-3-methoxy-N-o-tolylsulfonylbenzamide], the “inhibition of platelet aggregation (in words)” value ([1]; 0.1 μM) is reported as “did not significantly inhibit”, the “inhibition of platelet aggregation (in words)” value ([1]; 0.3 μM) is reported as “did not significantly inhibit” and the “platelet aggregation, normalized to vehicle” value ([1]; 0.6 μM) is reported as 54.8%. The “platelet aggregation, normalized to vehicle” value ([1]; 1.25 μM) was 54.9%, the “platelet aggregation, normalized to vehicle” value ([1]; 2.5 μM) was 40.00% and the “platelet aggregation, normalized to vehicle” value ([1]; 5 μM) was 22.47%. For the same compound, the “platelet aggregation, normalized to vehicle” value ([1]; 10 μM) was 18.1%, the inhibition at 0.6 µM ([1]; Homo sapiens, Platelet, 0.05 h, 0.6 μM) was 45% and the inhibition at 1.25 µM ([1]; Homo sapiens, Platelet, 0.05 h, 1.25 μM) was 45%. The inhibition at 2.5 µM ([1]; Homo sapiens, Platelet, 0.05 h, 2.5 μM) was 60%, the inhibition at 5 µM ([1]; Homo sapiens, Platelet, 0.05 h, 5 μM) was 77.5% and the inhibition at 10 µM ([1]; Homo sapiens, Platelet, 0.05 h, 10 μM) was 81.9%. The “mean ATP secretion” value [2] was 0.327 nM, the “inhibitory range on PDI” value [3] was 30 to 300 µM and the “platelet spreading upon collagen (in words)” value [4] was “inhibit”. For the same compound, the “inhibitory range on TRX” value [5] was 10 to 300 µM, the IC50 [6] was 5 µM and the IC50 ([6]; Homo sapiens, HCT-116, 24 h) was 5 to 10 µM.
